The test system of the assay is recombinant NL4-3 virus (Renilla luciferase in nef, Gag P373S). Kind of assay: HIV Cell Culture Assay (luciferase reporter virus in MT-2 cells). To be noted: NL43. It counts as cell-based. How it is done:
MT-2 cells and 293T cells were obtained from the NIH AIDS Research and Reference Reagent Program. MT-2 cells were propagated in RPMI 1640 media supplemented with 10% heat inactivated fetal bovine serum, […]. The 293T cells were propagated in DMEM media supplemented with 10% heat inactivated fetal bovine serum (FBS), 100 units/mL penicillin G and 100 μg/mL streptomycin. The proviral DNA clone of NL4-3 was obtained from the NIH AIDS Research and Reference Reagent Program. A recombinant NL4-3 virus, in which a section of the nef gene from NL4-3 was replaced with the Renilla luciferase gene, was used as a reference virus. In addition, residue Gag P373 was converted to P373S. Briefly, the recombinant virus was prepared by transfection of the altered proviral clone of NL4-3. Transfections were performed in 293T cells using LipofectAMINE PLUS from Invitrogen (Carlsbad, Calif.), according to manufacturer's instruction. The virus was titered in MT-2 cells using luciferase enzyme activity as a marker. Luciferase was quantitated using the Dual Luciferase kit from Promega (Madison, Wis.), with modifications to the manufacturer's protocol. The diluted Passive Lysis solution was pre-mixed with the re-suspended Luciferase Assay Reagent and the re-suspended Stop & Glo Substrate (2:1:1 ratio). Fifty (50) μL of the mixture was added to each aspirated well on assay plates and luciferase activity was measured immediately on a Wallac TriLux (Perkin-Elmer). Antiviral activities of inhibitors toward the recombinant virus were quantified by measuring luciferase activity in cells infected for 4-5 days with NLRluc recombinants in the presence serial dilutions of the inhibitor.

For the compound `CC(C)C1=C2[C@H]3CC[C@@H]4[C@@]5(C)CC=C(C6=CC[C@](CF)(C(=O)O)CC6)C(C)(C)[C@@H]5CC[C@@]4(C)[C@]3(C)CC[C@@]2(CNCCCN2CCS(=O)(=O)CC2)C=C1c1ccccc1` [Example 16, (S)-4-((3aR,5aR,5bR,7aR,11aS,11bR,13aS)-3a-(((3-(1,1-dioxidothiomorpholino)propyl)amino)methyl)-1-isopropyl-5a,5b,8,8,11a-pentamethyl-2-phenyl-4,5,5a,5b,6,7,7a,8,11,11a,11b,12,13,13a-tetradecahydro-3aH-cyclopenta[a]chrysen-9-yl)-1-(fluoromethyl)cyclohex-3-enecarboxylic acid], the concentration giving a half-maximal response (EC50) stood at 2.64 nM. Regarding `CC(C)C1=C2[C@H]3CC[C@@H]4[C@@]5(C)CC=C(C6=CC[C@](CF)(C(=O)O)CC6)C(C)(C)[C@@H]5CC[C@@]4(C)[C@]3(C)CC[C@@]2(NCCN2CCS(=O)(=O)CC2)C=C1c1ccccc1` [Example 17, (S)-4-((3aR,5aR,5bR,7aR,11aS,11bR,13aS)-3a-((2-(1,1-dioxidothiomorpholino)ethyl)amino)-1-isopropyl-5a,5b,8,8,11a-pentamethyl-2-phenyl-4,5,5a,5b,6,7,7a,8,11,11a,11b,12,13,13a-tetradecahydro-3aH-cyclopenta[a]chrysen-9-yl)-1-(fluoromethyl)cyclohex-3-enecarboxylic acid], the EC50 amounted to 109 nM.

The record behind these values is US9969767B2, “Oxolupene derivatives” (priority 2014, dated 2018).
